pIC50: −log10 of the molar value.
Assays:
MV4-11 (leukemia) cells = test: In vitro cell proliferation inhibition assay (CellTiter-Glo), MV4-11; format: cell-based, human; details: MV4-11 cells
Protocol: (§1) By detecting the effect of compound on cell activity in vitro in the tumor cell lines TOV21G (ovarian cancer) and MV4-11 (leukemia), the effect of compound inhibiting cell proliferation was studied in this assay.
(§2) TOV21G cells and MV4-11 cells were purchased from American Type Culture Collection (ATCC).
MV-4-11 cells were cultured in IMDM medium (containing 20% FBS), each well of a 96-well culture plate was inoculated with about 10000 cells, and treated with different concentrations (0-10 μM) of compounds to be tested in triplex. Blank wells (containing medium only) and control wells (inoculated with cells but not treated with drug) were set. Cells were cultured for 120 hours, 40 μL Cell Titer-Glo solution was added to each well, incubated with shaking for 20 min in the dark, 100 μL solution was transferred from each well to a 96-well white plate, and the luminescence value was read by Biotek Synergy H1 multifunctional microplate reader. Inhibition rate (%)=100%×(control well−test well)/(control well−blank well)

[1] = tested on: TOV21G (ovarian cancer) cells; test: In vitro cell proliferation inhibition assay (CellTiter-Glo), TOV21G; format: cell-based, human; details: 120 hours
Protocol: as §1, §2
TOV21G cells were cultured in MCDB105/M199 medium (containing 15% […]), and used for testing when the cell confluence reaches 85% or more. Each well of a 96-well culture plate was inoculated with about 1000 cells, cultured for 24 hours, and treated with different concentrations (0-10 μM) of compound solution to be tested in triplex. Blank wells (contains medium only) and control wells (seeded cells was not treated with drug) were set. Cells were cultured for 120 hours, 40 μL Cell Titer-Glo solution (Promega, #G7573) were added to each well, incubated with shaking for 20 min in the dark, 100 μL solution was transferred from each well to a 96-well white plate (Corning, #3917), and the luminescence value was read by Biotek Synergy H1 multifunctional microplate reader.

ATR kinase = ATR kinase (Homo sapiens (Human), UniProt Q13535); test: ATR kinase activity assay (time-resolved fluorescence, p53 substrate phosphorylation); format: biochemical
Chain of ATR kinase (Q13535 whole entry): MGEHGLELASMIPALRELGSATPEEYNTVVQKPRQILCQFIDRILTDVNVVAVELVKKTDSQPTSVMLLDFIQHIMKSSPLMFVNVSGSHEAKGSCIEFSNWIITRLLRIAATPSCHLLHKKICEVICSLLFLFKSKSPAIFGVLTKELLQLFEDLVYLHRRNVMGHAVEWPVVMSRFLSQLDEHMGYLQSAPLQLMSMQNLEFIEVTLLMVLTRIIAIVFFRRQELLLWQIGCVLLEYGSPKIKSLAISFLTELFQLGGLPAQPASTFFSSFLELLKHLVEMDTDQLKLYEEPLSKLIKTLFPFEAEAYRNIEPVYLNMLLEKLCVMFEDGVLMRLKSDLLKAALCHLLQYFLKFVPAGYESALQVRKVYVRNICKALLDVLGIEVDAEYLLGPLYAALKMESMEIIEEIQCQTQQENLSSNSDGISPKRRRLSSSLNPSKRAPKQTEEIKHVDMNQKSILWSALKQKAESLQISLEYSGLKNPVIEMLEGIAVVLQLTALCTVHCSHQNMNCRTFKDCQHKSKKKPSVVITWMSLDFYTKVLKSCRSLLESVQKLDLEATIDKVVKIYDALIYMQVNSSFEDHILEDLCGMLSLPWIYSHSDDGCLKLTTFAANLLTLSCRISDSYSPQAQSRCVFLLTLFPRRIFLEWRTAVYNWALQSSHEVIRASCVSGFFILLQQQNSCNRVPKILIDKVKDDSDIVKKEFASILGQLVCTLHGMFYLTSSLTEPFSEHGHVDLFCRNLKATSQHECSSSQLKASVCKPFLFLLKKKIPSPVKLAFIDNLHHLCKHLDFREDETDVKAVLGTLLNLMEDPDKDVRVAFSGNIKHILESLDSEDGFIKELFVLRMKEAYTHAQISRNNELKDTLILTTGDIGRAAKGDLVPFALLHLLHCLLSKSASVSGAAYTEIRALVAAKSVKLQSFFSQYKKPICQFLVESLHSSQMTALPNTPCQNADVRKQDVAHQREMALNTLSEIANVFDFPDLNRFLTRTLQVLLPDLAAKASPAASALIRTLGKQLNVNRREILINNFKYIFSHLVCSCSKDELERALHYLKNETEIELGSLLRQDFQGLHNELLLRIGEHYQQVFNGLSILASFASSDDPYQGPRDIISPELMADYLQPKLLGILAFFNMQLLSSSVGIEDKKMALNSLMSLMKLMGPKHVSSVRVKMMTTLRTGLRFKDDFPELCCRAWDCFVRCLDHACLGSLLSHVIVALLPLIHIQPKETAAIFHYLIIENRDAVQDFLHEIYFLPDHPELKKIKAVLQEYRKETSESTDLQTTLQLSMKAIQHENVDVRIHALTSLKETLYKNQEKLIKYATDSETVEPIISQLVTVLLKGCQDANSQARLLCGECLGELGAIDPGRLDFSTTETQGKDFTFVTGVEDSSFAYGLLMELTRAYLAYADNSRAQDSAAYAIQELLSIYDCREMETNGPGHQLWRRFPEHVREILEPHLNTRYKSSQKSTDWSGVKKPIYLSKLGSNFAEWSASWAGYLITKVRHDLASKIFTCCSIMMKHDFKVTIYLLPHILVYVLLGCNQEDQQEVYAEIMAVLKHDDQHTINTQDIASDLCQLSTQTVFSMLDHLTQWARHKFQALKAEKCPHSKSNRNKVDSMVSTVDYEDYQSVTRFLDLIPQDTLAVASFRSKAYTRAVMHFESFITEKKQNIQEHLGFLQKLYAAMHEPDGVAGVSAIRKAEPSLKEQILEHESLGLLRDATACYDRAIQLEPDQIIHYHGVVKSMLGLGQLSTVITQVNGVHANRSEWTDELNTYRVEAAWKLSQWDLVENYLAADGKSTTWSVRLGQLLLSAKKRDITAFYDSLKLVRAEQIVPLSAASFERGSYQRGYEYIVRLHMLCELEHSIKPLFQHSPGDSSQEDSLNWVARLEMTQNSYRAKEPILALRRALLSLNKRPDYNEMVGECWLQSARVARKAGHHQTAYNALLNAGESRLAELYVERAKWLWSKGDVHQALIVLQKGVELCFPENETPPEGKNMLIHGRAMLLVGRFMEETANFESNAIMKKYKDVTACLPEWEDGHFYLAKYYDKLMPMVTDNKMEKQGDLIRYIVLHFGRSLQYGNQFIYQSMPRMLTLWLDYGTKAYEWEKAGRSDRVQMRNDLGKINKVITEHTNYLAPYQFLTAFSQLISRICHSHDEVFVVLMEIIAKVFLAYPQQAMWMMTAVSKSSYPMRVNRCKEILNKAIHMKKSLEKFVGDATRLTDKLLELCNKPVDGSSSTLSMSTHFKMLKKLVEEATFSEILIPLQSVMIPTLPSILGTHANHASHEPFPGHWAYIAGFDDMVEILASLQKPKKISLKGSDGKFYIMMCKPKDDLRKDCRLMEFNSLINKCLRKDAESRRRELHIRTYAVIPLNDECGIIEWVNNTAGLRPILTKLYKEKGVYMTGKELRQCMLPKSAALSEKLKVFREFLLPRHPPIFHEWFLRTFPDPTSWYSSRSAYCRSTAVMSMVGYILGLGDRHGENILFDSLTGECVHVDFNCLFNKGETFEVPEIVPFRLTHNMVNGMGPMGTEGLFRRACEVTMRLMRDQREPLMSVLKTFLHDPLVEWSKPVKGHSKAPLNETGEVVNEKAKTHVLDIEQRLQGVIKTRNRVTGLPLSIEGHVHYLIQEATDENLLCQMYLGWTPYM
Chain of ATR kinase (Q8WXE1 whole entry partner): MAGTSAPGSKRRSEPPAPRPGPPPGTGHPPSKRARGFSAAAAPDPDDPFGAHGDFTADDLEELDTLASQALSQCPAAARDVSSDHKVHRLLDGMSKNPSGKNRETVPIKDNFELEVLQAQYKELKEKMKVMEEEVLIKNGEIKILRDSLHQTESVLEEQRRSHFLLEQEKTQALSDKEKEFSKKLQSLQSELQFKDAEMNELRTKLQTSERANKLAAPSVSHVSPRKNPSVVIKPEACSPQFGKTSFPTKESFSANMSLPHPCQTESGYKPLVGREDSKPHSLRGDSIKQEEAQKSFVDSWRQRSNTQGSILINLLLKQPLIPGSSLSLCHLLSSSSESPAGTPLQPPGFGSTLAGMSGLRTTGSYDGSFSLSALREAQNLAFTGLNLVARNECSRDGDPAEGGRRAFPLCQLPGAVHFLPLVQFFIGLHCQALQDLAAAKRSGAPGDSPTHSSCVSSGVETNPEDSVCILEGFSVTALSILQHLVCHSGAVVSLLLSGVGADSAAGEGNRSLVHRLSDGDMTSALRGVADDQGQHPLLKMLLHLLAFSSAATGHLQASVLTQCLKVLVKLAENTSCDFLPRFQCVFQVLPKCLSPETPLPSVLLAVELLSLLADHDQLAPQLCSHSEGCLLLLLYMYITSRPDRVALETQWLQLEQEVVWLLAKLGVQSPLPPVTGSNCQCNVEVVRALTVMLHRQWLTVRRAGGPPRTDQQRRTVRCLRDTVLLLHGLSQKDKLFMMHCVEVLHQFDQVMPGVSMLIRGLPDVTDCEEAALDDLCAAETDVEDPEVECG
Protocol: Biotinylated protein derived from p53 (Eurofins, art. No.: 14-952) was phosphorylated with ATR kinase. The amount of phosphorylated protein was determined by time-resolved fluorescence in this assay. The amount of phosphorylated protein was detected by anti-p53-phospho-(serine 15)-K-specific antibody (Cisbio, art. No.: 61GSTDLA) and d2 labeled anti-GST antibody (Cisbio, art. No. 61P08KAE). Before the experiment, the following working solution was prepared as required: 1× reaction buffer (20 mM HEPES PH8.0, 1% glycerol, 0.01% Brij-35), dilution buffer (20 mM HEPES PH8.0, 1% glycerol, 0.01% Brij-35, 5 mM DTT and 1% BSA), stop solution (20 mM HEPES PH8.0, 1% glycerol, 0.01% Brij-35, 250 mM EDTA), detection buffer (50 mM HEPES pH7.0, 150 mM NaCl, 267 mM KF, 0.1% sodium cholate, 0.01% Tween-20, 0.0125% sodium azide). The reagents used above are purchased from Sigma or Invitrogen, except for those where the manufacturer was mentioned.
Operations are as follows:
4× gradient dilution of compound solutions was prepared with 1× reaction buffer to obtain 9 compound solutions of different concentrations, and 2.5 μL 4× gradient dilution of compound solutions was added to a 384-well analysis plate (784075, Greiner). 4× p53 substrate working solution (40 nM) was prepared with 1× reaction buffer, and 2.5 μL 4× p53 substrate working solution was added to the 384-well analysis plate. 4×ATR/ATRIP working solution (12.8 ng/μL) was prepared with dilution buffer, and 2.5 μL 4×pATR/ATRIP working solution was added to the 384-well analysis plate. 4×ATP working solution (2 mM) was prepared with deionized water, 2.5 μL 4×ATP working solution was added to the 384-well analysis plate, and incubated at room temperature in dark for 30 minutes. 5 μL stop solution was added to the 384 analysis plate. Finally, 5 μL test mixture (0.084 ng/μL Anti-phospho-p53(ser15)-K and 5 ng/μL Anti-GST-d2) was added to the 384 well analysis plate, incubated overnight at room temperature, and the fluorescence signal was detected with ENVISION (Perkinelmer) instrument (excitation wavelength: 320 nm, emission wavelength: 665 nm and 615 nm). The inhibition rate in each well was calculated by the fluorescence intensity value of each hole: ER (Emission Ratio)=(Fluorescence intensity at 665 nm/Fluorescence intensity at 615 nm); inhibition rate=(ER positive-ER test compound)/(ER positive-ER negative)×100%, the IC50 value of compounds were calculated by standard parameter fitting software (GraphPad Prism 6.0).

SMILES	pIC50 (MV4-11 (leukemia) cells; 120 hours)	pIC50 [1]	pIC50 (ATR kinase)	pIC50 (MV4-11 (leukemia) cells; Homo sapiens, MV4-11, 120 h)	pIC50 ([1]; Homo sapiens)
Cc1nn(C2CCNCC2)c(C(F)(F)F)c1-c1cc(N2CCOC[C@H]2C)nc(-n2cnc3cc(F)ccc32)n1 [Compound D30a]	6.39	5.68	7.80	–	–
CC(=O)Nc1nc2ccccc2n1-c1nc(-c2c(C)nn(C3CCNCC3)c2C(F)(F)F)cc(N2CCOC[C@H]2C)n1 [Compound D8]	–	–	8.52	6.66	6.37
Cc1nn(C2CCNCC2)c(C(F)(F)F)c1-c1cc(N2CCOC[C@H]2C)nc(-c2cncc3[nH]ccc23)n1 [Compound D19]	–	–	9.00	7.10	6.96
Cc1nn(C2CCNCC2)c(C(F)(F)F)c1-c1cc(N2CCOC[C@H]2C)nc(-n2cnc3ccc(F)cc32)n1 [Compound D30b]	6.48	5.65	7.27	–	–
Cc1c(-c2cc(N3CCOC[C@H]3C)nc(-c3ccnc4[nH]ccc34)n2)c(C(F)(F)F)nn1C1CCNCC1 [Compound D2]	–	–	8.22	6.11	6.04
CNc1nc2cc(F)ccc2n1-c1nc(-c2c(C(F)(F)F)nn(C3CCCNC3)c2C)cc(N2CCOC[C@H]2C)n1 (stereo partly shown) [Compound D33]	5.88	5.84	7.89	–	–
Cc1nn(C2CCNCC2)c(C(F)(F)F)c1-c1cc(N2CCOC[C@H]2C)nc(-n2c(NC(=O)C3CC3)nc3ccccc32)n1 [Compound D21]	–	–	8.70	6.72	6.85
CNc1nc2ccccc2n1-c1nc(-c2c(C)nn(CC3CCCNC3)c2C(F)(F)F)cc(N2CCOC[C@H]2C)n1 (stereo partly shown) [Compound D40]	–	–	8.30	6.24	6.14
Cc1c(-c2cc(N3CCOC[C@H]3C)nc(-c3ccnc4[nH]ccc34)n2)c(C(F)(F)F)nn1C1CCCNC1 (stereo partly shown) [Compound D12]	–	–	8.52	6.54	6.55
COc1c(-c2cc(N3CCOC[C@H]3C)nc(-c3ccnc4[nH]ccc34)n2)c(C(F)(F)F)nn1C1CCN(C)CC1 [Compound D14]	–	–	7.55	6.09	5.92
Cc1nn(C2CCNCC2)c(C(F)(F)F)c1-c1cc(N2CCOC[C@H]2C)nc(-n2c(N)nc3cc(F)ccc32)n1 [Compound D7]	–	–	9.00	6.51	6.34
Cc1c(-c2cc(N3CCOC[C@H]3C)nc(-c3cncc4[nH]ccc34)n2)c(C(F)(F)F)nn1C1CCNCC1 [Compound D20]	–	–	> 9.00	7.15	6.80
CNc1nc2cc(F)ccc2n1-c1nc(-c2c(C(F)(F)F)nn(C3CCNCC3)c2C)cc(N2CCOC[C@H]2C)n1 [Compound D16]	5.87	5.98	7.09	–	–
Cc1nn(C2CCNCC2)c(C(F)(F)F)c1-c1cc(N2CCOC[C@H]2C)nc(-n2c(NC(=O)C3CC3)nc3ccccc32)n1 [Compound D38]	6.64	6.85	8.30	–	–
CNc1nc2cc(Cl)ccc2n1-c1nc(-c2c(C)nn(C3CCNCC3)c2C(F)(F)F)cc(N2CCOC[C@H]2C)n1 [Compound D25]	–	–	–	6.00	5.99
CNc1nc2cc(F)ccc2n1-c1nc(-c2c(C)nn(CS(C)(=O)=O)c2C(F)(F)F)cc(N2CCOC[C@H]2C)n1 [Compound D41]	–	–	7.54	6.24	6.03
CNc1nc2cc(F)ccc2n1-c1nc(-c2c(C)nn(CC3CCCNC3)c2C(F)(F)F)cc(N2CCOC[C@H]2C)n1 (stereo partly shown) [Compound D39]	–	–	8.52	5.91	6.07

Results, then the molecule that gave them:

pIC50 (MV4-11 (leukemia) cells; 120 hours)	pIC50 [1]	pIC50 (ATR kinase)	pIC50 (MV4-11 (leukemia) cells; Homo sapiens, MV4-11, 120 h)	pIC50 ([1]; Homo sapiens)	SMILES
6.26	6.30	8.70	–	–	Cc1nn(C2CCNCC2)c(C(F)(F)F)c1-c1cc(C23CCOCC2C3)nc(-c2cc(F)cc3[nH]ccc23)n1 (stereo not shown) [Compound D49]
6.23	6.43	8.70	–	–	Cc1nn(C[C@@H]2CCCN2)c(C(F)(F)F)c1-c1cc(N2CCOC[C@H]2C)nc(-c2cc(F)cc3[nH]ccc23)n1 [Compound D52]
6.21	6.15	8.40	–	–	Cc1nn(C[C@H]2CCCN2)c(C(F)(F)F)c1-c1cc(N2CCOC[C@H]2C)nc(-c2cc(F)cc3[nH]ccc23)n1 [Compound D53]
–	–	8.40	7.05	6.74	Cc1nn([C@H]2CCNCC2(F)F)c(C)c1-c1cc(N2CCOC[C@H]2C)nc(-c2cc(F)cc3[nH]ccc23)n1 [Compound D54a]
–	–	7.89	6.59	6.36	Cc1nn([C@@H]2CCNCC2(F)F)c(C)c1-c1cc(N2CCOC[C@H]2C)nc(-c2cc(F)cc3[nH]ccc23)n1 [Compound D54b]
6.49	6.36	8.05	–	–	CNc1nc2ccccc2n1-c1nc(-c2c(C(F)(F)F)nn(C3CCNCC3)c2C)cc(N2CCOC[C@H]2C)n1 [Compound D56]
–	–	7.01	5.76	5.70	CNc1nc2cc(F)ccc2n1-c1nc(-c2c(C(F)(F)F)nn(CS(C)(=O)=O)c2C)cc(N2CCOC[C@H]2C)n1 [Compound D42]
6.09	–	8.52	–	–	Cc1c(-c2cc(N3CCOC[C@H]3C)nc(-c3cc(F)cc4[nH]ccc34)n2)c(C(F)(F)F)nn1C1CC2(CNC2)C1 [Compound D50]
6.28	5.88	8.22	–	–	Cc1nn(C2CCNCC2)c(C(F)(F)F)c1-c1cc(N2CCOC[C@H]2C)nc(-n2cnc3ccccc32)n1 [Compound D46]
6.70	6.26	8.70	–	–	CNc1nc2ccccc2n1-c1nc(-c2c(C)nn(C3CCNCC3)c2C(F)(F)F)cc(C23CCOCC2C3)n1 (stereo not shown) [Compound D48]
6.26	6.22	8.30	–	–	Cc1c(-c2cc(N3CCOC[C@H]3C)nc(-c3cc(F)cc4[nH]ccc34)n2)c(C(F)(F)F)nn1C1CCNCC1 [Compound D47]
6.66	6.72	8.52	–	–	Cc1nn(C(=O)N2CCNCC2)c(C)c1-c1cc(N2CCOC[C@H]2C)nc(-c2cc(F)cc3[nH]ccc23)n1 [Compound D55]

— US12544382B2, “2, 4, 6-tri-substituted pyrimidine compound as ATR kinase inhibitor” (BEIJING TIDE PHARMACEUTICAL CO., LTD., priority 2019, dated 2026)
